Measured values: the kinase profiling compilation of Christmann-Franck et al. (2016)

Experiments:
Assay in all cases: radiometric filter-binding kinase assay, Kinase HotSpot
Conditions in all cases: compound 0.5 µM; ATP 10 µM
ABL1 (human) = ABL1 (human) (UniProt P00519)
AKT3 (human) = AKT3 (human) (UniProt Q9Y243)
AURKA (human) = AURKA (human) (UniProt O14965)
AURKC (human) = AURKC (human) (UniProt Q9UQB9)
CAMK1G (human) = CAMK1G (human) (UniProt Q96NX5)
CDK6 CCND1 (human) = CDK6 CCND1 (human) (UniProt Q00534+P24385)
CDK6 CCND3 (human) = CDK6 CCND3 (human) (UniProt P30281+Q00534)
CHEK2 (human) = CHEK2 (human) (UniProt O96017)
Chain of CHEK2 (human) (O96017 whole entry, looked up): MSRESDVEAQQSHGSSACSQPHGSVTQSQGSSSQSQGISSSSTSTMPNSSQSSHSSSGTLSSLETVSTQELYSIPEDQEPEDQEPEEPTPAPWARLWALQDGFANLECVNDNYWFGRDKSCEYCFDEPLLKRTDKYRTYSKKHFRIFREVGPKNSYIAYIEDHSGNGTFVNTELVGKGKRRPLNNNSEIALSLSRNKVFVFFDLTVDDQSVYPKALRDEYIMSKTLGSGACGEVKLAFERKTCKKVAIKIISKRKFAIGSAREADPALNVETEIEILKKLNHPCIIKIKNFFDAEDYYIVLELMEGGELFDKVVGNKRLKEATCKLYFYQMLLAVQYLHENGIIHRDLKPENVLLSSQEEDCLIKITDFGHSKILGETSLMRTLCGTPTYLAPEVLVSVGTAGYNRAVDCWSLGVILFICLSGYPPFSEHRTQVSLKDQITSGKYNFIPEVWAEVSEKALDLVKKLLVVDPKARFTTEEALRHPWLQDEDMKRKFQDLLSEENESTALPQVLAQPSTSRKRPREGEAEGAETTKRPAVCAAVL

CLK2 (human) = CLK2 (human) (UniProt P49760)
CSNK2A2 (human) = CSNK2A2 (human) (UniProt P19784)
DYRK1A (human) = DYRK1A (human) (UniProt Q13627)
DYRK3 (human) = DYRK3 (human) (UniProt O43781)
EGFR (human) = EGFR (human) (UniProt P00533)
EPHA2 (human) = EPHA2 (human) (UniProt P29317)
EPHA6 (human) = EPHA6 (human) (UniProt Q9UF33)
GRK7 (human) = GRK7 (human) (UniProt Q8WTQ7)
HIPK3 (human) = HIPK3 (human) (UniProt Q9H422)
KDR (human) = KDR (human) (UniProt P35968)
MELK (human) = MELK (human) (UniProt Q14680)
MKNK2 (human) = MKNK2 (human) (UniProt Q9HBH9)
MYLK (human) = MYLK (human) (UniProt Q15746)
MYO3B (human) = MYO3B (human) (UniProt Q8WXR4)
Chain of MYO3B (human) (Q8WXR4 whole entry, looked up): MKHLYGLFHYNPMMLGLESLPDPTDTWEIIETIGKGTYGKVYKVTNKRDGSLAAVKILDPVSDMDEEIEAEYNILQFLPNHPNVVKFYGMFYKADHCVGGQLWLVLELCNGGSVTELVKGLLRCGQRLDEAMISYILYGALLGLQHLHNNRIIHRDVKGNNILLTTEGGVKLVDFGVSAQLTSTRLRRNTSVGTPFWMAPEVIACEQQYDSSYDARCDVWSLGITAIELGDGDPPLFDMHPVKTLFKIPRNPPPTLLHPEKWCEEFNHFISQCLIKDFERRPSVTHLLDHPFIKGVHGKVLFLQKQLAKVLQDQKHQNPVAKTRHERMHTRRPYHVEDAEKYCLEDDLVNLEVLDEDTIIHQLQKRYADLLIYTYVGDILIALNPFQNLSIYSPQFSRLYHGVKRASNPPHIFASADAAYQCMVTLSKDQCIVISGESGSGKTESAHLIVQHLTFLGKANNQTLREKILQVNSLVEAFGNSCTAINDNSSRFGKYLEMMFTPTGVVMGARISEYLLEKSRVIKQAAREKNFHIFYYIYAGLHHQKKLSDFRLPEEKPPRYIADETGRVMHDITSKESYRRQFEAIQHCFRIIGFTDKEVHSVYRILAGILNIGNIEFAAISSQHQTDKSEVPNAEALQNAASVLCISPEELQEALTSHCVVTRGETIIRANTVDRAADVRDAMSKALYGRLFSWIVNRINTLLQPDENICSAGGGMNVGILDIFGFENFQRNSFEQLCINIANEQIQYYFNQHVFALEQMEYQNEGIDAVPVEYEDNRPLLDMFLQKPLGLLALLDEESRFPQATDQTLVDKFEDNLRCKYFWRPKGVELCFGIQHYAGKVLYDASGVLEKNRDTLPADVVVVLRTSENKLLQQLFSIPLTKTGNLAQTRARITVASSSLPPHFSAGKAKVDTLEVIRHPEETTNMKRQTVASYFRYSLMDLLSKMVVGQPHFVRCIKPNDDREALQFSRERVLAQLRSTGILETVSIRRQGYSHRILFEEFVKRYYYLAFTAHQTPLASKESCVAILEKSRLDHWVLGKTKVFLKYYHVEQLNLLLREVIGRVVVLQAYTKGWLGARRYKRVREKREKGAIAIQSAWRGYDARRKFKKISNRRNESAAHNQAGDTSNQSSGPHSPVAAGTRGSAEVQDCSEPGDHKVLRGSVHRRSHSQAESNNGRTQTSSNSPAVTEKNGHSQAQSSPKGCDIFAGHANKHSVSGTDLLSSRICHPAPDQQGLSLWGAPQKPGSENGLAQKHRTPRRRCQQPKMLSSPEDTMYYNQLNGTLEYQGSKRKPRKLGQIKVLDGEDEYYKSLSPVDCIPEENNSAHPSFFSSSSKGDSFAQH

NTRK1 (human) = NTRK1 (human) (UniProt P04629)
OXSR1 (human) = OXSR1 (human) (UniProt O95747)
PAK6 (human) = PAK6 (human) (UniProt Q9NQU5)
Chain of PAK6 (human) (Q9NQU5 whole entry, looked up): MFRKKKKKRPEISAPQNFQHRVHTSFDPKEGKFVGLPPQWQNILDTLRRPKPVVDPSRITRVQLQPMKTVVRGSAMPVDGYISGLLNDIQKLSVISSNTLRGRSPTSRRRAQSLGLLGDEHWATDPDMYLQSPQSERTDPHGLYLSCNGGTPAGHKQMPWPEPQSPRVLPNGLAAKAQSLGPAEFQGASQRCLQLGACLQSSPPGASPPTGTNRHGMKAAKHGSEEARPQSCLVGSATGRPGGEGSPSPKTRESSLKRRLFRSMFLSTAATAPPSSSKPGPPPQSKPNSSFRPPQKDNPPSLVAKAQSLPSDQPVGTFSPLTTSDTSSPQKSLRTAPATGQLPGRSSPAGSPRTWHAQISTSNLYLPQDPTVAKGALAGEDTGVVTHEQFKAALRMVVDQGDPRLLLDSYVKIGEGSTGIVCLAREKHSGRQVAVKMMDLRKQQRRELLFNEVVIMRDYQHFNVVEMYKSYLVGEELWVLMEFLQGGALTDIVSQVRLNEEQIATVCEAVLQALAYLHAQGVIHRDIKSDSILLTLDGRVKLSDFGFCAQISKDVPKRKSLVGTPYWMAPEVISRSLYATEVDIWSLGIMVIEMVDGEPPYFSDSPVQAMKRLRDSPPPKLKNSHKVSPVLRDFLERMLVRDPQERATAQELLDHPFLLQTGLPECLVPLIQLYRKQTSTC

PAK7 (human) = PAK7 (human) (UniProt Q9P286)
PDGFRB (human) = PDGFRB (human) (UniProt P09619)
PIM1 (human) = PIM1 (human) (UniProt P11309)
PIM2 (human) = PIM2 (human) (UniProt Q9P1W9)
PRKACG (human) = PRKACG (human) (UniProt P22612)
SGK3 (human) = SGK3 (human) (UniProt Q96BR1)
STK10 (human) = STK10 (human) (UniProt O94804)
STK25 (human) = STK25 (human) (UniProt O00506)
STK38 (human) = STK38 (human) (UniProt Q15208)
TEK (human) = TEK (human) (UniProt Q02763)
TLK2 (human) = TLK2 (human) (UniProt Q86UE8)
ULK3 (human) = ULK3 (human) (UniProt Q6PHR2)
VRK1 (human) = VRK1 (human) (UniProt Q99986)
WNK3 (human) = WNK3 (human) (UniProt Q9BYP7)
Chain of WNK3 (human) (Q9BYP7 whole entry, looked up): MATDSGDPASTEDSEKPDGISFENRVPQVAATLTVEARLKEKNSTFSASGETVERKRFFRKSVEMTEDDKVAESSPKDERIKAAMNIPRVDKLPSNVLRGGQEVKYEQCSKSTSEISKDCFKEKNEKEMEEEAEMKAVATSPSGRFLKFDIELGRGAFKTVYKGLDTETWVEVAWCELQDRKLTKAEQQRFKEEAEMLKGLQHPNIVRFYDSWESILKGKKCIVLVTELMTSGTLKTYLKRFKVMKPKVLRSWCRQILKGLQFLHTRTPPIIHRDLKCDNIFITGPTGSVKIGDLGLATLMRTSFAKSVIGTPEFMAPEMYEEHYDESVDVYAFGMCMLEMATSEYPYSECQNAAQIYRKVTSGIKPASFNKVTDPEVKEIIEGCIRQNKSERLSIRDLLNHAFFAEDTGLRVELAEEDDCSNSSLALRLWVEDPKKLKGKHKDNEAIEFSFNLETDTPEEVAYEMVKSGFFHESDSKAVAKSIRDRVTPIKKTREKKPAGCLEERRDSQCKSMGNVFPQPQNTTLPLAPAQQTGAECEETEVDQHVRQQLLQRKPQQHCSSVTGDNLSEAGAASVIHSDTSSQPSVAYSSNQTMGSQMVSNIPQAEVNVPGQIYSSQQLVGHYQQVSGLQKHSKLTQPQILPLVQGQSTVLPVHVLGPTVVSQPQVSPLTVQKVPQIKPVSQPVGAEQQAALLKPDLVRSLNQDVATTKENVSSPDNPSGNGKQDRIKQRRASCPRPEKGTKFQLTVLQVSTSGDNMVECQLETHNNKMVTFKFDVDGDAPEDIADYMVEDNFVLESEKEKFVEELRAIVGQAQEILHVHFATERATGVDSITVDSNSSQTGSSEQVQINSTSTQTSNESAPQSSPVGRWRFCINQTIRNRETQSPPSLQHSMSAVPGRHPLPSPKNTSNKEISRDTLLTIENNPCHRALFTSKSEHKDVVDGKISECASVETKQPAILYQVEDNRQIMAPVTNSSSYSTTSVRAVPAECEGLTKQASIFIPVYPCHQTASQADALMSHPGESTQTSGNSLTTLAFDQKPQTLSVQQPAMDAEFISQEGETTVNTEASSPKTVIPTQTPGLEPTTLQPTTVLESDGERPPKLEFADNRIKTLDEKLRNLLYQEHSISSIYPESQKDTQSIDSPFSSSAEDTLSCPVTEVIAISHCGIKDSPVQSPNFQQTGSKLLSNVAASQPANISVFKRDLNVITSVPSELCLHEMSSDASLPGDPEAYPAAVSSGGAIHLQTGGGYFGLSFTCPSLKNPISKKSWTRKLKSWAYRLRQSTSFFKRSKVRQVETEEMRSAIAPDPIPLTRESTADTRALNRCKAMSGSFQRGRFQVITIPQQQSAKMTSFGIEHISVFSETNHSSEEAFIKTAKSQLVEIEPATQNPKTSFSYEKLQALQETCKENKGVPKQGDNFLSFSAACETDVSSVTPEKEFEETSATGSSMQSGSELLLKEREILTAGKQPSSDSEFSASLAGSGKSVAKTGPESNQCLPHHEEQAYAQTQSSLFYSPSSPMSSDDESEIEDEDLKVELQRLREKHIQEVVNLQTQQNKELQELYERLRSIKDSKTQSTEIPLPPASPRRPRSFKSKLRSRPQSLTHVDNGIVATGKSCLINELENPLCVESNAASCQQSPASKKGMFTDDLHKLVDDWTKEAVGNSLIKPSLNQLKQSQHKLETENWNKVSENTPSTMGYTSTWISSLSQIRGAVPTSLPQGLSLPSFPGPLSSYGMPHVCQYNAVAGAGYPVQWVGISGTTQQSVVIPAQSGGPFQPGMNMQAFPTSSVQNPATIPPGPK

[1] = tested on: ARAF (human), P10398 [Y301D/Y302D]
BRAF (human) = BRAF (human) (UniProt P15056)

Chain of CAMK1G (human) (Q96NX5 whole entry, looked up): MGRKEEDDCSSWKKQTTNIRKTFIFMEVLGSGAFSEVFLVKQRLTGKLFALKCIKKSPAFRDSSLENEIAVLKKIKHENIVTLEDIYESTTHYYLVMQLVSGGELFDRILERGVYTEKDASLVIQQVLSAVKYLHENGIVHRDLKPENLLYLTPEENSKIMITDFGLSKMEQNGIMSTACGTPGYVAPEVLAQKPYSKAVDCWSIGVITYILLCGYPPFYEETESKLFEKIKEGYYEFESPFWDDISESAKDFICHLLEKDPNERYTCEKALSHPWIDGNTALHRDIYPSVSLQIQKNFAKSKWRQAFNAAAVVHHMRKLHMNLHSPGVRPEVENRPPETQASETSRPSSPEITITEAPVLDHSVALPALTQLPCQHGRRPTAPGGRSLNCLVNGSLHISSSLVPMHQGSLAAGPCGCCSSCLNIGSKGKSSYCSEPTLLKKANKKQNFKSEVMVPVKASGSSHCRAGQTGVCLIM

COc1cc2nccc(Oc3ccc(NC(=S)NC(=O)c4ccccc4C)cc3)c2cc1OC
residual activity (ABL1 (human)): 50.6% | residual activity (AKT3 (human)): 95.9% | residual activity (AURKA (human)): 18.9% | residual activity (AURKC (human)): 30.2% | residual activity (CAMK1G (human)): 99.5% | residual activity (CDK6 CCND1 (human)): 87.1% | residual activity (CDK6 CCND3 (human)): 97.3% | residual activity (CHEK2 (human)): 67% | residual activity (CLK2 (human)): 107% | residual activity (CSNK2A2 (human)): 96.6% | residual activity (DYRK1A (human)): 95.4% | residual activity (DYRK3 (human)): 90.8% | residual activity (EGFR (human)): 89.7% | residual activity (EPHA2 (human)): 86.9% | residual activity (EPHA6 (human)): 33% | residual activity (GRK7 (human)): 95.6% | residual activity (HIPK3 (human)): 95.2% | residual activity (KDR (human)): 74.1% | residual activity (MELK (human)): 98.5% | residual activity (MKNK2 (human)): 94.3% | residual activity (MYLK (human)): 104% | residual activity (MYO3B (human)): 83.4% | residual activity (NTRK1 (human)): 82.5% | residual activity (OXSR1 (human)): 106% | residual activity (PAK6 (human)): 95.8% | residual activity (PAK7 (human)): 102% | residual activity (PDGFRB (human)): 26.7% | residual activity (PIM1 (human)): 97.6% | residual activity (PIM2 (human)): 117% | residual activity (PRKACG (human)): 107% | residual activity (SGK3 (human)): 98.3% | residual activity (STK10 (human)): 11.9% | residual activity (STK25 (human)): 103% | residual activity (STK38 (human)): 107% | residual activity (TEK (human)): 90.1% | residual activity (TLK2 (human)): 85.3% | residual activity (ULK3 (human)): 86.8% | residual activity (VRK1 (human)): 96.3% | residual activity (WNK3 (human)): 101%

COc1cc2ncnc(Nc3ccc(F)c(Cl)c3)c2cc1OCCCN1CCOCC1
residual activity (AKT3 (human)): 84.6% | residual activity [1]: 95.3% | residual activity (AURKA (human)): 95.3% | residual activity (AURKC (human)): 89.7% | residual activity (BRAF (human)): 95.8% | residual activity (CAMK1G (human)): 103% | residual activity (CDK6 CCND1 (human)): 98.7% | residual activity (CDK6 CCND3 (human)): 118% | residual activity (CHEK2 (human)): 84% | residual activity (CLK2 (human)): 94.8% | residual activity (CSNK2A2 (human)): 88.6% | residual activity (DYRK1A (human)): 101% | residual activity (DYRK3 (human)): 85% | residual activity (EPHA2 (human)): 85.7% | residual activity (EPHA6 (human)): 28.9% | residual activity (GRK7 (human)): 96.2% | residual activity (HIPK3 (human)): 103% | residual activity (MELK (human)): 77.7% | residual activity (MKNK2 (human)): 54.1% | residual activity (MYLK (human)): 89.7% | residual activity (MYO3B (human)): 91.4% | residual activity (NTRK1 (human)): 103% | residual activity (OXSR1 (human)): 101% | residual activity (PAK6 (human)): 105% | residual activity (PAK7 (human)): 97.4% | residual activity (PDGFRB (human)): 93.9% | residual activity (PIM1 (human)): 86.4% | residual activity (PIM2 (human)): 96.2% | residual activity (PRKACG (human)): 107% | residual activity (SGK3 (human)): 98.3% | residual activity (STK10 (human)): 38.6% | residual activity (STK25 (human)): 97.4% | residual activity (STK38 (human)): 105% | residual activity (TEK (human)): 96.2% | residual activity (TLK2 (human)): 80.4% | residual activity (ULK3 (human)): 108% | residual activity (VRK1 (human)): 99.3% | residual activity (WNK3 (human)): 102%

Oc1ccc(-c2nc(-c3ccc(F)cc3)c(-c3ccncc3)[nH]2)cc1
residual activity (AKT3 (human)): 98.4% | residual activity [1]: 31.1% | residual activity (AURKA (human)): 96.1% | residual activity (AURKC (human)): 94.2% | residual activity (BRAF (human)): 60.5% | residual activity (CAMK1G (human)): 98.5% | residual activity (CDK6 CCND1 (human)): 97.6% | residual activity (CDK6 CCND3 (human)): 104% | residual activity (CHEK2 (human)): 98.9% | residual activity (CLK2 (human)): 105% | residual activity (CSNK2A2 (human)): 95.9% | residual activity (DYRK1A (human)): 99.6% | residual activity (DYRK3 (human)): 101% | residual activity (EPHA2 (human)): 91.3% | residual activity (EPHA6 (human)): 57.3% | residual activity (GRK7 (human)): 105% | residual activity (HIPK3 (human)): 98.3% | residual activity (KDR (human)): 99.9% | residual activity (MELK (human)): 102% | residual activity (MKNK2 (human)): 89.4% | residual activity (MYLK (human)): 106% | residual activity (MYO3B (human)): 101% | residual activity (NTRK1 (human)): 105% | residual activity (OXSR1 (human)): 97.6% | residual activity (PAK6 (human)): 104% | residual activity (PAK7 (human)): 107% | residual activity (PDGFRB (human)): 104% | residual activity (PIM1 (human)): 106% | residual activity (PIM2 (human)): 106% | residual activity (PRKACG (human)): 78.4% | residual activity (SGK3 (human)): 98.4% | residual activity (STK10 (human)): 85% | residual activity (STK25 (human)): 115% | residual activity (STK38 (human)): 99.8% | residual activity (TEK (human)): 99.6% | residual activity (TLK2 (human)): 97.4% | residual activity (ULK3 (human)): 85.5% | residual activity (VRK1 (human)): 98.7% | residual activity (WNK3 (human)): 101%

Cc1cc2ncc(-c3ccccc3)nc2cc1C
residual activity (ABL1 (human)): 99.6% | residual activity (AKT3 (human)): 91.8% | residual activity (AURKA (human)): 92.1% | residual activity (AURKC (human)): 92.1% | residual activity (CAMK1G (human)): 101% | residual activity (CDK6 CCND1 (human)): 87.1% | residual activity (CDK6 CCND3 (human)): 86.7% | residual activity (CHEK2 (human)): 96.8% | residual activity (CLK2 (human)): 102% | residual activity (CSNK2A2 (human)): 90.3% | residual activity (DYRK1A (human)): 89.9% | residual activity (DYRK3 (human)): 89.2% | residual activity (EGFR (human)): 84.5% | residual activity (EPHA2 (human)): 103% | residual activity (EPHA6 (human)): 93% | residual activity (GRK7 (human)): 102% | residual activity (HIPK3 (human)): 94.4% | residual activity (KDR (human)): 99.1% | residual activity (MELK (human)): 91.1% | residual activity (MKNK2 (human)): 94.8% | residual activity (MYLK (human)): 102% | residual activity (MYO3B (human)): 99% | residual activity (NTRK1 (human)): 105% | residual activity (OXSR1 (human)): 85.6% | residual activity (PAK6 (human)): 97.4% | residual activity (PAK7 (human)): 96.9% | residual activity (PDGFRB (human)): 89.1% | residual activity (PIM1 (human)): 101% | residual activity (PIM2 (human)): 81% | residual activity (PRKACG (human)): 95.8% | residual activity (SGK3 (human)): 101% | residual activity (STK10 (human)): 90.7% | residual activity (STK25 (human)): 92.5% | residual activity (STK38 (human)): 94.7% | residual activity (TEK (human)): 99.7% | residual activity (TLK2 (human)): 100% | residual activity (ULK3 (human)): 86.4% | residual activity (VRK1 (human)): 101% | residual activity (WNK3 (human)): 103%

NC(=O)c1ccc(N(C(N)=O)c2c(F)cccc2F)nc1-c1ccc(F)cc1F
residual activity (ABL1 (human)): 99.7% | residual activity (AKT3 (human)): 86.2% | residual activity (AURKA (human)): 86.4% | residual activity (AURKC (human)): 83.8% | residual activity (CAMK1G (human)): 108% | residual activity (CDK6 CCND1 (human)): 95.1% | residual activity (CDK6 CCND3 (human)): 119% | residual activity (CHEK2 (human)): 97.6% | residual activity (CLK2 (human)): 86.9% | residual activity (CSNK2A2 (human)): 109% | residual activity (DYRK1A (human)): 98.7% | residual activity (DYRK3 (human)): 105% | residual activity (EGFR (human)): 92.7% | residual activity (EPHA2 (human)): 89% | residual activity (EPHA6 (human)): 95% | residual activity (GRK7 (human)): 108% | residual activity (HIPK3 (human)): 98.4% | residual activity (KDR (human)): 96.5% | residual activity (MELK (human)): 87.1% | residual activity (MKNK2 (human)): 101% | residual activity (MYLK (human)): 101% | residual activity (MYO3B (human)): 99.2% | residual activity (NTRK1 (human)): 96.3% | residual activity (OXSR1 (human)): 96.9% | residual activity (PAK6 (human)): 103% | residual activity (PAK7 (human)): 96.4% | residual activity (PDGFRB (human)): 62.8% | residual activity (PIM1 (human)): 98.8% | residual activity (PIM2 (human)): 98.3% | residual activity (PRKACG (human)): 109% | residual activity (SGK3 (human)): 99.9% | residual activity (STK10 (human)): 93.8% | residual activity (STK25 (human)): 97.1% | residual activity (STK38 (human)): 101% | residual activity (TEK (human)): 96.7% | residual activity (TLK2 (human)): 95.7% | residual activity (ULK3 (human)): 101% | residual activity (VRK1 (human)): 104% | residual activity (WNK3 (human)): 96.6%
